Measurements: patent US20230213527A1, “COMPOSITIONS AND METHODS FOR POLYPEPTIDE ANALYSIS” (Quantum-Si Incorporated, priority 2021, published 2023)
Values joined by “and” are separate entries in the source; they are usually repeats but may differ in a detail not shown here. Equal values may be shown once. Read-outs that look alike come from different tables or passages of the source. Square brackets hold non-standard residues; d marks the D form. Ends that are not written are not given here. Cit = NC(=O)NCCC[C@H](N)C(=O)O

How the values were obtained:
[1] = system: amino acid recognizers; test: Sequencing of β-amyloid wild type and variant peptides, average pulse width; assay type: binding; details: for Average Pulse Width, tripeptide LVX: when sequencing L
Text: Aspects of the technology described herein may be used for protein preparation, peptide library preparation, peptide sequencing and peptide profiling of synthetic samples of ß-amyloid. In this example, the wild type (LVFFAE (SEQ ID NO: 827)) and variants (17LVFFAK22 (SEQ ID NO: 828), 17LVFFGK22 (SEQ ID NO: 829), 17LVFFAG22 (SEQ ID NO: 830), and 17LVPFAE22 (SEQ ID NO: 831)) of β-amyloid were digested and labeled for further analysis. Alternatively, β-amyloid may be purified from common sources, such as cerebrospinal fluid (CSF), for downstream analysis.
A chip including aspects of the technology described herein was used for the downstream sequencing of the sample material. The chip contained millions of wells, each of which acted as an independent sequencing machine. Once the sample was loaded, cloud technology was used to set up the sequencing run and collect all the data for visualization. Once collected in the cloud, a set of proprietary algorithms, which can identify amino acids based on the specialized optical pulse patterns of each binding event, determined the sequence of the peptide and mapped that sequence back to a specific protein or protein variant.
Here, the protein sequencing technology and analysis pipeline was successfully used to distinguish a variety of clinically significant ß-amyloid point mutations. The sequencing traces containing pulse patterns of the variants, 17LVFFAK22 (SEQ ID NO: 828), 17LVFFGK22 (SEQ ID NO: 829), 17LVFFAG22 (SEQ ID NO: 830), and 17LVPFAE22 (SEQ ID NO: 831), were compared to the wild type, 17LVFFAE22 (SEQ ID NO: 827). Software automatically identified pulses containing the same intensity, lifetime, and kinetics, which determined a recognition segment for a specific amino acid. Each recognition segment was color coded based on the N-terminal amino acid, and the collection of recognition segments provided a characteristic signature of the peptide.
Time domain sequencing functionality can observe sequence changes indirectly during peptide profiling. The specific PTMs and folding of each variant cause them to display distinctly different patterns, which can then be inferred via alterations in pulse width. For example, a point mutation in a sequence—at the N-terminal end, or at the penultimate and antepenultimate positions, of the peptide—can generate an altered pulse pattern, compared to another sequence.

[2] = system: PhTET2 and PhTET3; test: Aminopeptidase cleavage of N-terminal amino acids during dynamic sequencing (RS/NRS durations); assay type: biochemical, P. horikoshii
Protocol: To evaluate the kinetic principles of the dynamic sequencing method when applied to diverse sequences, the synthetic peptide DQQRLIFAG (SEQ ID NO: 794), corresponding to a segment of human ubiquitin, was characterized (FIGS. 3A-3D). Sequencing reactions were performed using a combination of three differentially-labeled recognizers—PS610, PS961, and PS691—and two aminopeptidases—PhTET2 and PhTET3 (Materials and Methods). The example trace in FIG. 3A starts with an NRS that corresponds to the time interval during which residues in the initial DQQ motif are present at the N-terminus. The first RS starts at 120 min, upon exposure of N-terminal arginine to recognition by PS691. Subsequent cleavage events sequentially expose N-terminal leucine, isoleucine, and phenylalanine to their corresponding recognizers, with fast transitions (average <10 s) from one RS to the next. The transition from leucine to isoleucine recognition by PS961 is readily identified as a sharp change in average PD. This overall pattern is replicated across many instances of sequencing of the same peptide, with similar PD statistics across traces, as each peptide molecule follows the same reaction pathway over the course of the sequencing run (FIGS. 3B-3C).
The distribution of RS durations across an ensemble of replicate traces defines the rate of cleavage of each recognizable NAA. […] The distribution of NRS durations reports the cleavage rate of a run of one or more non-recognized NAAs. The average NRS duration for the initial DQQ motif was 153 min (FIG. 3D). Average cleavage rates are a key parameter and are controlled by the aminopeptidase concentration in the assay (FIGS. 8D-8E). Given the exponential behavior, average RS durations of 10 to 40 min were targeted to provide sufficient time for pulsing data collection, avoid missed RSs due to rapid cleavage, and minimize excessively long RS durations. It was found helpful to visualize the sequencing profiles of peptides as kinetic signature plots—simplified trace-like representations of the time course of complete peptide sequencing containing the median PD for each RS, and the average duration of each RS and NRS (FIG. 3E). These highly characteristic features provide a wealth of sequence-dependent information for mapping traces from peptides to their proteins of origin.
A second chip check was then performed. […] Data was recorded for 15 min.

[3] = system: PS1223; test: Dynamic single-molecule sequencing, recognition by PS1223; assay type: binding; details: recognizer PS1223, recognition of the N-terminal amino acid
Chain of PS1223 (as listed by the source): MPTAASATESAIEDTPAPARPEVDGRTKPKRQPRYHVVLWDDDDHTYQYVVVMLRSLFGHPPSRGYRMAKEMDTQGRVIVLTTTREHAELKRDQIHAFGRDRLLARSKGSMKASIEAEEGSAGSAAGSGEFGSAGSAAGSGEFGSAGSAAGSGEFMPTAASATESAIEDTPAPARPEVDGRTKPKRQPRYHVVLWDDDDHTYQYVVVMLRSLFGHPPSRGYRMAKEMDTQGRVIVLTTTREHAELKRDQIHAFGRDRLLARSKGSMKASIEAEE
Protocol: Sequencing reactions using the recognizers PS610 (FYW), PS1220 (R), and PS1223 (LIV) were performed separately for the QP706 and QP1073 peptide fragments. Each recognizer was labeled with a unique dye and/or unique number of dyes. A scatter plot of bin ratio v. pulse duration is shown for the QP706 peptide fragment in FIG. 18A and for the QP1073 peptide fragment in FIG. 18B. In the plot of FIG. 18A, three clusters corresponding to FLE, LEQ, and RFL segments are visible. […] In the plot of FIG. 18B, two clusters corresponding to FLE and LEQ segments are visible, but there is no cluster corresponding to RFL.
In this example, sequencing reactions were conducted for 4 pairs of unmodified and citrullinated peptides: QP1028 & QP1029, QP1030 & QP1031, QP1032 & QP1033, and QP707 & QP789. […] For the QP1028 & QP1029 and QP1030 & QP1031 pairs, sequencing reactions were conducted using the PS610 (FYW) recognizer. For the QP1032 & QP1033 and QP707 & QP789 pairs, sequencing reactions were conducted using the PS1223 (LIV) recognizer.

[4] = system: PS961; test: Dynamic single-molecule sequencing, recognition by PS961; assay type: binding, Planctomycetes; details: arginine or citrulline at position 2
Chain of PS961 (as listed by the source): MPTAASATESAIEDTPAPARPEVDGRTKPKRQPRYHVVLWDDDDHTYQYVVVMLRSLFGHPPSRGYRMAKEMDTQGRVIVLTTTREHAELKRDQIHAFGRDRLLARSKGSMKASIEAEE
Protocol: The semiconductor chip was placed in the sequencing device and a chip check was performed to test electronic circuit function and to optimize laser coupling alignment. The chip was then removed from the device socket and the chip was washed twice with 50 μL of 70% isopropanol, followed by four washes with 30 μL of wash buffer (50 mM MOPS pH 8.0, 60 mM potassium acetate, 50 mM glucose, 20 mM magnesium acetate, and surfactant mix) through a flow cell attached to the chip. A second chip check was then performed. The laser was then blocked via an integrated software-controlled shutter, peptide complex was added to a final concentration of 1-10 nM and mixed thoroughly, and the chip was incubated for 15 min. The chip was then washed six times with wash buffer, followed by addition of an imaging solution (wash buffer with 5 mM Trolox and an oxygen scavenging system). The laser was unblocked and the occupancy percentage (target 10-30%, Poisson distributed) was recorded by acquiring a photobleaching signal from a fluorophore attached to the peptide complex during 5 min of laser illumination. For NAA recognition-only assays, after peptide loading, labeled recognizer was added to a final concentration of 50 nM PS610, 100 nM PS691, or 250 nM PS961 (as indicated according to the experiment), and data was recorded for 10 hours. For dynamic sequencing assays, after peptide loading, a mixture of labeled recognizers was added to obtain final concentrations of 50 nM PS610, 100 nM PS691, and 250 nM PS961. Data was recorded for 15 min. The laser was then blocked briefly and aminopeptidases were added to the sequencing reaction via the flow cell and mixed thoroughly (final concentration 2-8 μM PhTET2 and/or 20-80 μM PhTET3, as indicated according to the experiment). The laser was then unblocked, and data was recorded for 10 hours. For all runs, 30 μL of mineral oil was added to fluid reservoirs at each port of the flow cell to prevent evaporation during the run.
The measured signal on-chip comprises various noise components, the most dominant one being due to fluorescent emissions from diffusing recognizers in the reaction chamber. The pulse caller algorithm for a given reaction chamber starts by estimating the statistical properties of this background noise component. Once an estimate within certain error bounds has been established, the algorithm works in an online fashion observing new frames of data as they are generated. At each point in time, the algorithm maintains state indicating whether the signal is due to the background component only or a pulse from a recognizer-NAA interaction is being observed. The state transition from background to pulse is triggered using an edge detection test where the shift in signal is expected to be significant with respect to the background component's statistical distribution. The state transition from pulse to background is triggered when a small window of the most recent frames of the signal appears to conform to the background component's distribution again. The algorithm maintains an updated model of the background component as new background frames are observed. This provides robustness against drift in the signal intensity together with a feedback control loop that maintains a stable optical coupling of the laser into the chip based on any such detected drift. As detected pulses can be due to true recognizer-to-dipeptide interaction events as well as other occasional transient noise spikes, a downstream filter layer is employed to test the significance of pulse events based on their duration, intensity, and noise patterns within the context of the full timeline of the run and the entire dataset of reaction chambers.
Initial regions are determined by performing a sliding window calculation of pulse rate along the time dimension of a series of pulses. Regions with a mean pulse rate >1 pulse/min are then subdivided according to a greedy bisection approach.

[5] = molecular target: T1, PS621 (Kluyveromyces lactis, UniProt O60014, E174T/N105S/N176F/R116K/S153T/V146T); test: Dynamic single-molecule sequencing, recognition by PS621; assay type: binding; details: unmodified arginine peptide, average of 10 sequencing reactions
T1 construct: PS621; […]
T1 sequence (O60014 other isoform, or with tags, fused parts or gaps N105S/R116K/V146T/S153T/E174T/N176F): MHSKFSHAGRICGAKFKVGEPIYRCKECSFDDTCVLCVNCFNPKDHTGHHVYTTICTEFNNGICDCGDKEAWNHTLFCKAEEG
Text: PTM detection involved isolating peptides and subjecting them to a real-time single-molecule protein sequencing reaction. Proteins were first digested into peptide fragments and conjugated C-terminally to macromolecular linkers. The peptide complexes were immobilized at the bottom of nanoscale wells on a semiconductor chip, resulting in single peptide molecules with exposed N-termini ready for sequencing. During the sequencing reaction, the surface-immobilized peptides were exposed to a solution containing dye-labeled NAA recognizers that bound on and off to their cognate NAAs with characteristic kinetic properties. Aminopeptidases in solution sequentially removed individual NAAs to expose subsequent amino acids for recognition. Fluorescence lifetime, intensity, and kinetic data were collected in real time and analyzed to determine amino acid sequence and PTM content.
The trace-level output included distinct pulsing regions called recognition segments (RSs); each RS corresponded to a period of time between aminopeptidase cleavage events during which an NAA recognizer bound on and off to its exposed target NAA. Chemical modifications to a target NAA or to a nearby downstream amino acid can modulate recognizer affinity, resulting in a characteristic change in the average pulse duration (PD) during an RS relative to an unmodified peptide. These modifications can also influence the rate of aminopeptidase cleavage of an NAA, resulting in a characteristic change in average duration of the corresponding RS.
Synthetic peptides corresponding to residues 69 to 76 of P38MAPKa were generated in three versions containing either arginine, ADMA, or SDMA at position 2: YRELRLLK (SEQ ID NO: 834), YRADMAELRLLK (SEQ ID NO: 835), and YRSDMAELRLLK (SEQ ID NO: 836). Each peptide was sequenced using three recognizers—PS610 (F, Y, W), PS961 (L, I, V), and PS621 (R)—and data were analyzed to identify RSs, determine the mean PD of each RS, and characterize the kinetic signature of each peptide.
In this example, sequencing reactions were performed using PS621 (R), PS610 (FYW), and PS961 (LIV) recognizers for 9 pairs of peptides. Each pair comprised one peptide comprising an unmodified arginine residue followed by a non-arginine amino acid (referred to as an R-X peptide) and one peptide having an identical sequence except that the unmodified arginine was modified to be ADMA (referred to as an ADMA-X peptide).

[6] = RS duration across replicate traces

## E22Q: β-amyloid variant, tripeptide FAQ (Amyloid-beta protein 42; UniProt P05067 691-693, looked up, fragment E22Q) [Peptide E22Q]
[1]
  Average Pulse Width, tripeptide FXX: 2.67 (FAQ) seconds

## DQQRLIFAG [synthetic peptide corresponding to a segment of human ubiquitin]
[2]
  Average NRS duration for the initial DQQ motif: 153 min
[2]; [6]
  Average cleavage time, N-terminal arginine: 31 min
  Average cleavage time, N-terminal isoleucine: 39 min
  Average cleavage time, N-terminal leucine: 54 min
  Average cleavage time, N-terminal phenylalanine: 86 min

## LVFFAE [WT, β-amyloid wild type]
[1]
  Average Pulse Width, tripeptide FXX: 2.43 (FAE) seconds
  Average Pulse Width, tripeptide LVX: 3.26 (LVF) seconds
[1]; listed as wild type
  Average Pulse Width, tripeptide FXX: 2.43 s
  Average Pulse Width, tripeptide LVX: 3.26 s

## IRLAFAYPDDDK [QP1032]
[3]
  Pulse Width: 0.58 s

## ICitLAFAYPDDDK (I[Cit]LAFAYPDDDK-NH2; also: C-terminal azidolysine (general statement for all synthetic peptides)) [QP1033]
[3]
  Pulse Width: 0.84 s

## LRLAFAYPDDDK [QP707]
[4]
  Median PD of recognition of N-terminal leucine by PS961: 0.43 s
[3]
  Pulse Width: 0.42 s
[5]; RS duration
  RS R-X: 17.3 min
[5]
  PW of R-X: 0.47 s

## LVFFAK [Peptide E22K, β-amyloid variant]
[1]
  Average Pulse Width, tripeptide FXX: 2.79 (FAK) seconds

## LVPFAE [Peptide F19P, β-amyloid variant]
[1]
  Average Pulse Width, tripeptide LVX: 1.86 seconds and 1.86 (LVP) seconds

## LVFFAG [Peptide E22G, β-amyloid variant]
[1]
  Average Pulse Width, tripeptide FXX: 2.99 (FAG) seconds
